Drawing on patent US9062050B2, “Inhibitor of JAK1 and JAK2” (Eli Lilly and Company, priority 2012, dated 2015), this text covers IC50 for one molecule.

One experiment has as its target T1, JAK1 (Homo sapiens, UniProt P23458).
T1 construct: purchased Life Technologies #PV4844
As to the kind of experiment: JAK LanthaScreen Kinase Assay (TR-FRET), JAK1. It counts as biochemical. Conditions: enzyme assay, 20.0 micromolar ATP, n=3; read-out: IC50 against JAK1. An excerpt: (§1) The JAK LanthaScreen™ Kinase Assay (Life Technologies, #PV4844) is used to determine compound IC50 values against the JAK1, JAK2, and JAK3 kinases. This kinase assay is a Time Resolved Fluorescence Resonance Energy Transfer (TR-FRET) assay format that uses long-lifetime terbium (Tb) labeled antibody as the donor species and Green Fluorescent Protein-Signal Transducers and Activators of Transcription (GFP-STAT1) as the acceptor species.
(§2) The TR-FRET ratio is used to monitor JAK1, JAK2, or JAK3 activity where an increase in phosphorylation of the GFP-STAT1 results in an increase in the TR-FRET ratio. Perform the kinase reaction using a 12.5 microliter reaction volume in shallow black 384-well Proxiplate (PerkinElmer, #6008260). […] Incubate at room temperature for 90 minutes, and read in an EnVision plate reader (PerkinElmer, #2104-0010) with 340 nm wavelength excitation filter and emission filters of 520 nm and 495 nm wavelengths. The ratio is derived from the emission wavelength for the GFP-STAT1 which is measured at 520 nanometer versus the emission at 495 nanometer for the Tb-anti-pSTAT1[pTyr701]. Derive the IC50 value for the compound using percent inhibition data, which is calculated from the reaction data relative to on-plate controls (active enzyme versus 2.0 micromolar control-inhibited enzyme). […]

For the next experiment, the target named is JAK2 (Homo sapiens, UniProt O60674). As to the kind of experiment: JAK LanthaScreen Kinase Assay (TR-FRET), JAK2. In kind it is biochemical. Details: purchased Life Technologies #PV4844. Conditions: enzyme assay, 5 micromolar ATP, n=1; read-out: IC50 against JAK2.
Chain of JAK2 (O60674 whole entry): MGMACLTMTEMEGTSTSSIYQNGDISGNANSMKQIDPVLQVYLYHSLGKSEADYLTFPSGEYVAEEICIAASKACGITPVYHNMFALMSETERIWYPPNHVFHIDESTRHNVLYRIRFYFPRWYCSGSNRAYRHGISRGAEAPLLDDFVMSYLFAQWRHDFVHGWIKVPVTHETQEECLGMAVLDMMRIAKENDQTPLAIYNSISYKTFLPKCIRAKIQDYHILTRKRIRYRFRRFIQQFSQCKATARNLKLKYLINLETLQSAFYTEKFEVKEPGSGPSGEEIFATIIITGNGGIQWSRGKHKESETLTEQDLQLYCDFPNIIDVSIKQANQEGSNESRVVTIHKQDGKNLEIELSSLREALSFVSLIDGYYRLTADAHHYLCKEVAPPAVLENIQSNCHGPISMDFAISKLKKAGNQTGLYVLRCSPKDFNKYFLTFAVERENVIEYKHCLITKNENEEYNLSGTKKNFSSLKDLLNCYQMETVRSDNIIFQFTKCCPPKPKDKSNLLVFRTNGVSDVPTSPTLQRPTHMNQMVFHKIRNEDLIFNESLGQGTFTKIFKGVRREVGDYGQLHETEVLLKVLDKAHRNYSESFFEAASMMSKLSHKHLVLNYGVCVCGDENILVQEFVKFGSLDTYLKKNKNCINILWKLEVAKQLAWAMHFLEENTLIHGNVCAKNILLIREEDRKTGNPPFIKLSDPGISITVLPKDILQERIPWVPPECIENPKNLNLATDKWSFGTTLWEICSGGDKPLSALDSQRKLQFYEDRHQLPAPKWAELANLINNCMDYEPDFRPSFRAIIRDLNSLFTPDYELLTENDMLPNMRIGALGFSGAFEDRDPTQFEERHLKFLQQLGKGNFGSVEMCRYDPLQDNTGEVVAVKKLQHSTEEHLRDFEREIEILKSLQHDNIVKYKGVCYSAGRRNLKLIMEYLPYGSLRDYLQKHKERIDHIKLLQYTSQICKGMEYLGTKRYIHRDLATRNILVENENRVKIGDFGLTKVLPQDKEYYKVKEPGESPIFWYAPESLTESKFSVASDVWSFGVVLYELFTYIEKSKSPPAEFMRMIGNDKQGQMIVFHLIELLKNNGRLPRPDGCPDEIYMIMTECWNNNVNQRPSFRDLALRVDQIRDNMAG
Description: as §1, §2

Molecules are shown by their SMILES.

T1 sequence (P23458 whole entry): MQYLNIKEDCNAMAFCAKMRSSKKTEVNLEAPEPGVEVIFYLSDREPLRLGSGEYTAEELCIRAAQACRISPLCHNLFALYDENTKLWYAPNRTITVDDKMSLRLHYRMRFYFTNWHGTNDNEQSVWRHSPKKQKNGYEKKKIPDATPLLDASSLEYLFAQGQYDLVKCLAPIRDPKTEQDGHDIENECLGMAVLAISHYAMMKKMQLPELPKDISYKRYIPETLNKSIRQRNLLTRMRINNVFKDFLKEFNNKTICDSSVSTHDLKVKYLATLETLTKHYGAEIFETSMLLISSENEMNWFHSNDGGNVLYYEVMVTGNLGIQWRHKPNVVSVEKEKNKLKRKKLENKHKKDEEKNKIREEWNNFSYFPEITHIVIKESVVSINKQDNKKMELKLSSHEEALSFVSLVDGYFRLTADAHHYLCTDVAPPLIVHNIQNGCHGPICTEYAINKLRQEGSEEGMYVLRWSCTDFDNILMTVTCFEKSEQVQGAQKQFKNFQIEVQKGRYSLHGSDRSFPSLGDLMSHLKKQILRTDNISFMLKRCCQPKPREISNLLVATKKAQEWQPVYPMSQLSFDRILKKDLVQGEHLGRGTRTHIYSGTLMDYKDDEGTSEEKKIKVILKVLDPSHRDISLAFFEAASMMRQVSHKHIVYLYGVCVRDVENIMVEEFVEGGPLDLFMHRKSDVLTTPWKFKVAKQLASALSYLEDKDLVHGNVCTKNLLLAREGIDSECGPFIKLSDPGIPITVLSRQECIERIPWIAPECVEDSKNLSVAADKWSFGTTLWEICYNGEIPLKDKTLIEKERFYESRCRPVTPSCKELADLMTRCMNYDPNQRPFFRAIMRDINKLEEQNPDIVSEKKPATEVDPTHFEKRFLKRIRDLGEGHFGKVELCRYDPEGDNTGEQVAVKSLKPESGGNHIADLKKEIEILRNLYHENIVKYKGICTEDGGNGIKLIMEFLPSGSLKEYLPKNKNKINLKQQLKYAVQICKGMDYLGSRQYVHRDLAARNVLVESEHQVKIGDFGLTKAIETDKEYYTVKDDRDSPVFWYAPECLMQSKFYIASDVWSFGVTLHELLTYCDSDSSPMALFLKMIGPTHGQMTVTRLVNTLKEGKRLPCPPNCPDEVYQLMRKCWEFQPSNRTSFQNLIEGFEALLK

By IC50 is commonly meant the point on the concentration scale where inhibition reaches its midpoint. For `Cc1cc(Nc2ccc3ncn([C@@H]4CCc5ccc(F)cc54)c3n2)[nH]n1.Cl.Cl` [Example 1, 3-[(1R)-6-fluoro-2,3-dihydro-1H-inden-1-yl]-N-(3-methyl-1H-pyrazol-5-yl)-3H-imidazo[4,5-b]pyridin-5-amine dihydrochloride], the IC50 at JAK1 and at JAK2 was 1.7 nM in each case.
